The values below are quoted from earlier work in US20100012891A1, “Tooth Whitening Compositions and Methods” (priority 2008, published 2010).

The conditions of the data set: at six months, 16%-18% carbamide peroxide (Brunton et al., 2004).

For `NC(N)=O.OO` [carbamide peroxide], the patients with rebound is recorded as 40%.
